Test results taken from ChEMBL document CHEMBL1201862, “PubChem BioAssay data set” (2004).
Active and inactive are the calls of the source.

What was measured:
[1] = target: T1, Sentrin-specific protease 7 (Homo sapiens, UniProt Q9BQF6); assay type: functional;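 further: Luminescence-based dose-response confirmation of ultra-high-throughput screening hits, measuring inhibition of SENP7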
T1 sequence (Q9BQF6 whole entry): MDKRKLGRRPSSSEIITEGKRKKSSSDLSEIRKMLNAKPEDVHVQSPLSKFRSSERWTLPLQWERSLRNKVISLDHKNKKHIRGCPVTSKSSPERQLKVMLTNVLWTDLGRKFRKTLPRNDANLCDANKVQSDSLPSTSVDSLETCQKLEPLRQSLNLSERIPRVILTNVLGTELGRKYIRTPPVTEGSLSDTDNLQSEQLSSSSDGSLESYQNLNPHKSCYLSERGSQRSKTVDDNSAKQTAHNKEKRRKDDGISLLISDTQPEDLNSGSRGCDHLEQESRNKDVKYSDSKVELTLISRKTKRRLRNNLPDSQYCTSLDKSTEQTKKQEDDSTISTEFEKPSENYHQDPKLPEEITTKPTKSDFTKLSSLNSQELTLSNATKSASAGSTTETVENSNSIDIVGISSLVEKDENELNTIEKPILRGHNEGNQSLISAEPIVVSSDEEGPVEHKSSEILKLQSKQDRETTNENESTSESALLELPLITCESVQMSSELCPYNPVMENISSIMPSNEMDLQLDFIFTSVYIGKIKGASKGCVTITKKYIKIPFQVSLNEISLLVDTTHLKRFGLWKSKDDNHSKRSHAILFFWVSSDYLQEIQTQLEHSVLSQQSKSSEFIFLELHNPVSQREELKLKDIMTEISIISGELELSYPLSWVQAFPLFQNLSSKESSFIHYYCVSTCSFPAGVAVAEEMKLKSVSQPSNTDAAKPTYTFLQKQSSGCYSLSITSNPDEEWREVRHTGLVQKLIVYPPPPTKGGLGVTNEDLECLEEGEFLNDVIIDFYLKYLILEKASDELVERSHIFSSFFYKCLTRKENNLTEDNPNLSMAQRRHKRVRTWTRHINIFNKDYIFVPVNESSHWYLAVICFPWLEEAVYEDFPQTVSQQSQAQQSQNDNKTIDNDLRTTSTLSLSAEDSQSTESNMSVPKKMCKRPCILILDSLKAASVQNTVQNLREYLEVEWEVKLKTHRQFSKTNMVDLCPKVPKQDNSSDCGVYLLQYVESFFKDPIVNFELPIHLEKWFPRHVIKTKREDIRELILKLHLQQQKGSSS

[2] = target: T2, Polyadenylate-binding protein 1 (Homo sapiens, UniProt P11940); assay: MLLE binding blockers, Cy5 peptide tracer – biochemical, fluorescence polarization, Cy5-PAM2 peptide, secondary, miRNA deadenylation inhibitor project, dose response (AID 602260); assay type: functional; details: read-out: IC50_Mean
T2 sequence (P11940 whole entry, the tested form may be a part): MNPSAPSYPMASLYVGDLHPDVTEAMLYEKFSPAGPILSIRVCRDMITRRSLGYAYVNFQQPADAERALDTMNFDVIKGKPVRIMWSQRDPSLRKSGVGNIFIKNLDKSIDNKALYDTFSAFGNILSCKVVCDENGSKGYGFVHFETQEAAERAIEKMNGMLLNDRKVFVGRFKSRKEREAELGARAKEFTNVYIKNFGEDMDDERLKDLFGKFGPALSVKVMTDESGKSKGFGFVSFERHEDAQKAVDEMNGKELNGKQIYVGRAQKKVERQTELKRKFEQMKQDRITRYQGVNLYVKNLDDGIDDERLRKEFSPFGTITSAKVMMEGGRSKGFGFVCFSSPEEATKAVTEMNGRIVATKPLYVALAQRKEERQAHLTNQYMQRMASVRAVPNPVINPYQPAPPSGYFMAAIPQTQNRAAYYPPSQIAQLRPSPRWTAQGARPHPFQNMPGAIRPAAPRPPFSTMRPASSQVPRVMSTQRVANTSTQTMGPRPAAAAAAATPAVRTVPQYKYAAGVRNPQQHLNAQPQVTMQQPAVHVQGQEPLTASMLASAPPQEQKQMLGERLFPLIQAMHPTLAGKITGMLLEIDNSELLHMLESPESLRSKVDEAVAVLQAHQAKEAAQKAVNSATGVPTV

[3] = target: T2, Polyadenylate-binding protein 1; assay: MLLE domain peptide-binding blockers, IC50 – biochemical, fluorescence polarization, FITC-PAM2 peptide, dose response (AID 602259); assay type: functional; details: read-out: IC50_Mean
[4] = target: T3, Sentrin-specific protease 8 (Homo sapiens, UniProt Q96LD8); assay type: functional;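 further: luminescence read-out of SENP8 inhibition, dose-response confirmation following an ultra-high-throughput screen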
T3 sequence (Q96LD8 whole entry): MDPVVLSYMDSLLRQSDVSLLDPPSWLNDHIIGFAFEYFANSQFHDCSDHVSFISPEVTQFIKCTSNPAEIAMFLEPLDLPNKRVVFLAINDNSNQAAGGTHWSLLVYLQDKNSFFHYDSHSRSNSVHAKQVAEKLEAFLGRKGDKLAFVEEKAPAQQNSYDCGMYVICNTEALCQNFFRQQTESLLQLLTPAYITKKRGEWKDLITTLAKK

Caspase-3 = target: T4, Caspase-3 (Homo sapiens, UniProt P42574); assay type: functional;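 further: Dose-response selectivity test against caspase-3 for candidate inhibitors of sentrin-specific proteases (SENPs)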
T4 sequence (P42574 whole entry): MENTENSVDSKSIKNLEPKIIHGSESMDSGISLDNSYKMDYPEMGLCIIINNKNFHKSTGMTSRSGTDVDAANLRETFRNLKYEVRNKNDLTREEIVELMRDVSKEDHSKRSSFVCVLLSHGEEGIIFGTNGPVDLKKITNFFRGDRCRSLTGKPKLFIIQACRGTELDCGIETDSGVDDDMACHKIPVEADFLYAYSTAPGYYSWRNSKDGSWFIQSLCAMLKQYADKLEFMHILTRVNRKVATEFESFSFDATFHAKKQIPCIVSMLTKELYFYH

[5] = target: T5, Sentrin-specific protease 6 (Homo sapiens, UniProt Q9GZR1); assay type: functional;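 further: Luminescence-based dose-response confirmatory assay of SENP6 inhibition, following up an ultra-high-throughput screen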
T5 sequence (Q9GZR1 whole entry): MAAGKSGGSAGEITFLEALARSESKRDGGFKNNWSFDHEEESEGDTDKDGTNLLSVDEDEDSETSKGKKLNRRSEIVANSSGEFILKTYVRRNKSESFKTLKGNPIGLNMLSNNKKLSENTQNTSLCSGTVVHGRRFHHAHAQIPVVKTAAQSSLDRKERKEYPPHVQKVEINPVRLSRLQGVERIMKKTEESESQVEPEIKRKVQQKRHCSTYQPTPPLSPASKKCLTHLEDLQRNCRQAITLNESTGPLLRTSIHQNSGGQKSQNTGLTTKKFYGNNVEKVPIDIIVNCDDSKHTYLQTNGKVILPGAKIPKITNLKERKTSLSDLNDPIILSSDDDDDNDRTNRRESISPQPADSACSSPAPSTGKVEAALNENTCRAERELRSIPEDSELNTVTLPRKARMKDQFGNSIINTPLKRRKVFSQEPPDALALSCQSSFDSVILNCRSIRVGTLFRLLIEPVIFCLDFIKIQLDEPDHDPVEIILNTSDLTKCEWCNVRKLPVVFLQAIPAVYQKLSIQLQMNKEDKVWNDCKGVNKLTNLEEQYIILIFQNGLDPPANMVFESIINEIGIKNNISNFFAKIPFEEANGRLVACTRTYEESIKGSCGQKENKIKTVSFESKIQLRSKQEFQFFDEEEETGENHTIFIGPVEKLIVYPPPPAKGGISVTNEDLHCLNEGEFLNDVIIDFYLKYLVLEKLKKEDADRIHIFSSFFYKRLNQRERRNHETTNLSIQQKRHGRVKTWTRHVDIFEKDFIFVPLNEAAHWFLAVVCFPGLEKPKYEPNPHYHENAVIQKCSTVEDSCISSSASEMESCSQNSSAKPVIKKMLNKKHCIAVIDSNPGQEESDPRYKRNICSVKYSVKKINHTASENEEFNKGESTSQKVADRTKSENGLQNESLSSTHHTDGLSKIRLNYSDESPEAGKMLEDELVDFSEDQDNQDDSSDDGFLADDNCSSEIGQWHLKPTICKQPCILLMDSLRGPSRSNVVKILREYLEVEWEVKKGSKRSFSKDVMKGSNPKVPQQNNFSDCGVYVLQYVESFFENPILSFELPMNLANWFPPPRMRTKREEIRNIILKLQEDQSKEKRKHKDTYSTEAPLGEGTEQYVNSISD

Protein skinhead-1 = target: T6, Protein skinhead-1 (Caenorhabditis elegans, UniProt P34707); assay type: functional
T6 sequence (P34707 whole entry): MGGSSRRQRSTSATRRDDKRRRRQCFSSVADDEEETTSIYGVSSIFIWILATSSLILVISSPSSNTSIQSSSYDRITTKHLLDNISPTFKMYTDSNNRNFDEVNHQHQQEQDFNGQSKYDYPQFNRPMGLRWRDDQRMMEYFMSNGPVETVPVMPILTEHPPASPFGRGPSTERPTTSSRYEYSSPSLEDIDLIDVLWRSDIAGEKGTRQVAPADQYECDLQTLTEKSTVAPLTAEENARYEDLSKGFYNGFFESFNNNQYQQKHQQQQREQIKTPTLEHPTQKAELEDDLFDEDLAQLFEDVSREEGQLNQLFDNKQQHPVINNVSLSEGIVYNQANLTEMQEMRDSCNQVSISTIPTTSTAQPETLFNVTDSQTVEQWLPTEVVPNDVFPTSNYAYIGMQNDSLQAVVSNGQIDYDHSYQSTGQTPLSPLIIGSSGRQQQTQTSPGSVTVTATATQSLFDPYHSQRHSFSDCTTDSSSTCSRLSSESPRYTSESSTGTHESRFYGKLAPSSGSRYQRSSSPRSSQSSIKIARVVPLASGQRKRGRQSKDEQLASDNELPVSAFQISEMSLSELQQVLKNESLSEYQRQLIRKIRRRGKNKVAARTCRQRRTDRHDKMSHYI

[6] = target: T7, Endoribonuclease toxin MazF (Escherichia coli K-12, UniProt P0AE70); assay: substrate-only fluorescence increase artefacts – biochemical, single-stranded RNase substrate, counter-screen for MazEF activator project, dose response (AID 588502); assay type: functional
T7 sequence (P0AE70 whole entry): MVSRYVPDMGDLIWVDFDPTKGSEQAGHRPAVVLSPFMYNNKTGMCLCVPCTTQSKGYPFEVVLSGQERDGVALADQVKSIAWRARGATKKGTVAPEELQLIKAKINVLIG

[7] = target: T7, Endoribonuclease toxin MazF; assay: activation of MazEF endoribonuclease cleavage – biochemical, fluorescence, single-stranded RNA substrate, uHTS hits, dose response (AID 588481); assay type: functional
[8] = system: Streptococcus sp. 'group A'; assay: Streptococcus pyogenes SK(-)GAS viability under kanamycin – luminescence, BacTiterGlo, confirmation, counter-screen for streptokinase expression inhibitor project, dose response (AID 1900); assay type: functional, organism-based
Streptococcus = assay: GAS UMAA2166 growth inhibition – luminescence, BacTiterGlo, counter-screen for streptokinase expression inhibitor project, dose response (AID 1915); assay type: functional, organism-based;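 further: potency for reduction of bacterial viability or growth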
Streptokinase A = target: T8, Streptokinase A (Streptococcus pyogenes serotype M1, UniProt P10520); assay: viability-normalized secreted streptokinase activity reduction – plasminogen activation absorbance, OD405, dose response (AID 1914); assay type: functional, Streptococcus pyogenes M1 GAS;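 further: secreted streptokinase activity via plasminogen activation per viability signal from cell pellet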
T8 sequence (P10520 whole entry): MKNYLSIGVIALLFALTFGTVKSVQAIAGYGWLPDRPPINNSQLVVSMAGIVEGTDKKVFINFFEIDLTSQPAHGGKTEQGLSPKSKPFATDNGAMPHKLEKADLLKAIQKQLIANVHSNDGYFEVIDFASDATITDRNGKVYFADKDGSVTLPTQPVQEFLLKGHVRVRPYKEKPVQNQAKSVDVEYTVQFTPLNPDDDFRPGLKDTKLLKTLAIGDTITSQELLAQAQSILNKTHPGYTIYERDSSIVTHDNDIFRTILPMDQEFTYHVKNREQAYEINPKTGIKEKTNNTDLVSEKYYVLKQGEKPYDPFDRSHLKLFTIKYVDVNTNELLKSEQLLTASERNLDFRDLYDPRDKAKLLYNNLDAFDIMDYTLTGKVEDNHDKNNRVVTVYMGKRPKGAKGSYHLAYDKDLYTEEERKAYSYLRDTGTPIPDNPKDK

[9] = Luminescence Cell-Based Dose Confirmation HTS to Identify Activators of 5'UTR Stem-Loop Driven Alpha-Synuclein mRNA Translation in H4 Neuroglioblastoma Cells. [Related pubchem assays: 1829 (Project Summary), 1814 (Primary HTS)]; assay type: functional
H4 = assay: Luminescence Cell-Based Dose Response HTS to Identify Activators of 5'UTR Stem-Loop Driven Prion Protein mRNA Translation in H4 Neuroglioblastoma Cells. [Related pubchem assays: 1829 (Project Summary), 1814 (Primary HTS)]; assay type: functional; details: Homo sapiens
[10] = Luminescence Cell-Based Dose Response HTS to Identify Activators of Luciferase Translation or Activity in H4 […] Cells. [Related pubchem assays: 1829 (Project Summary), 1814 (Primary HTS)]; assay type: functional
Cytochrome P450 2C9 = Cytochrome P450 2C9 (Homo sapiens, UniProt P11712)
Sequence of Cytochrome P450 2C9 (P11712 whole entry): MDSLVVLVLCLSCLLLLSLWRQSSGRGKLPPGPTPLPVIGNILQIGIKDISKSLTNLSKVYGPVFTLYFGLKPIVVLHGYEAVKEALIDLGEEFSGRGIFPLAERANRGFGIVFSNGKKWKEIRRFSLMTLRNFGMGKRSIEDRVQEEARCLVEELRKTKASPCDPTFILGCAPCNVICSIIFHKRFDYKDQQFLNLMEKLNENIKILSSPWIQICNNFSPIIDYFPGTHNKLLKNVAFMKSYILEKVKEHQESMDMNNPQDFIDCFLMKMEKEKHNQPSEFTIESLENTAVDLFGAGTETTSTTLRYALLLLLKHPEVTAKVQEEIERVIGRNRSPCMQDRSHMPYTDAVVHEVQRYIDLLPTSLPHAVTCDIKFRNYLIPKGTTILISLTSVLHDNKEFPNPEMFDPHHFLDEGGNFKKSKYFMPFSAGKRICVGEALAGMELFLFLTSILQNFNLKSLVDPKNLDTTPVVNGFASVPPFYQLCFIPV

P388/ADR = assay: cells; assay type: functional; details: Mus musculus
P388 = assay: cells; assay type: functional; details: Mus musculus
SN12K1 = assay: cells; assay type: functional; details: Homo sapiens

Compound	EC50 [6]	EC50 [7]	GI50 (P388/ADR)	GI50 (P388)	GI50 (SN12K1)	also measured
O=C(c1ccc(F)cc1)n1c(=S)nc2ccccn21	–	–	–	–	–	IC50 [1]: 18.1 µM (active); IC50 [2]: > 66 µM (inactive); IC50 [3]: > 66 µM (inactive); IC50 [4]: 86.1 µM (active); IC50 (Caspase-3): 52.2 µM (active); IC50 [5]: 60.4 µM (active)
CCCOc1ccc(-c2nnc(-c3ccco3)o2)cc1	–	–	–	–	–	IC50 [1]: 11.6 µM (active); IC50 [4]: 25.8 µM (active); IC50 (Protein skinhead-1): 64 µM (inactive); IC50 (Caspase-3): 17.4 µM (active); IC50 [5]: 22.4 µM (active)
CCN(CCNc1ccc([N+](=O)[O-])c2cccnc12)S(=O)(=O)c1ccccc1	> 99 µM (inactive)	> 99 µM (inactive)	–	–	–	–
CCOC(=O)c1sc(NC(=O)c2ccc3nc[nH]c3c2)nc1C	–	–	–	–	–	IC50 [1]: 2.47 µM (active); IC50 [4]: 3.4 µM (active); IC50 (Caspase-3): 7.1 µM (active); IC50 [5]: 5.17 µM (active)
COc1ccc(CNC(=O)c2cc3c(=O)n4ccccc4nc3n(Cc3cccnc3)c2=N)cc1	47.3 µM (inactive)	55.4 µM (inactive)	–	–	–	–
O=C1/C(=C/Nc2ccc(O)cc2)c2ccccc2C(=O)N1Cc1ccccc1	44.3 µM (inactive)	> 99 µM (inactive)	–	–	–	EC50 [8]: 6.51 µM (active); EC50 (Streptococcus): 14.6 µM (active); EC50 (Streptokinase A): 18.6 µM (active); EC50 [9]: 17.7 µM (active); EC50 (H4): 33 µM (active); EC50 [10]: 39.6 µM (active)
Cc1ccc(OCC(=O)Nc2ccc(Cl)cc2)c(-n2nc3ccccc3n2)c1	> 99 µM (inactive)	> 99 µM (inactive)	–	–	–	AC50 (Cytochrome P450 2C9): 2 µM (inconclusive)
COC1=C2C[C@@H](C)C[C@@H](OC)[C@@H](O)[C@H](C)/C=C(\C)[C@@H](OC(N)=O)[C@H](OC)/C=C\C=C(/C)C(=O)NC(=CC1=O)C2=O	–	–	0.212 µM (active)	0.015 µM (active)	0.11 µM (active)	–
COCCCn1c(=O)/c(=C/c2ccccc2OC(F)F)s/c1=C(\C#N)C(=O)NCCOC	> 99 µM (inactive)	> 99 µM (inactive)	–	–	–	–
CSc1nc2c(ncn2C2OCC(O)C(O)C2O)c(=O)[nH]1 (centres undefined)	–	–	> 100 µM (inactive)	> 100 µM (inactive)	> 100 µM (inactive)	–
CCCCCn1cc2c3c(cccc31)C1C=C(C)CN(C)[C@@H]1C2.Cc1ccc(C(=O)OC(C(=O)O)C(OC(=O)c2ccc(C)cc2)C(=O)O)cc1 (centres undefined)	–	–	3.18 µM (inactive)	2.63 µM (inactive)	3.56 µM (inactive)	–
Cc1ccc2[nH]c3c(C)c4ccncc4c(C)c3c2c1	–	–	0.933 µM (active)	0.394 µM (active)	0.927 µM (active)	–
